In experiment [1] the target is T1, Estrogen receptor beta (Homo sapiens, UniProt Q92731). Briefly: ERβ–SRC-3 coactivator interaction inhibitors, confirmation, orthogonal assay, biochemical, ELISA, streptavidin-HRP readout (AID 1060). (In general: In an ELISA, binding on a coated surface is turned into a signal by an enzyme label.)
A further experiment deals with T2, Protein RecA (Mycobacterium tuberculosis, UniProt P9WHJ3).
T2 sequence (P9WHJ3 whole entry): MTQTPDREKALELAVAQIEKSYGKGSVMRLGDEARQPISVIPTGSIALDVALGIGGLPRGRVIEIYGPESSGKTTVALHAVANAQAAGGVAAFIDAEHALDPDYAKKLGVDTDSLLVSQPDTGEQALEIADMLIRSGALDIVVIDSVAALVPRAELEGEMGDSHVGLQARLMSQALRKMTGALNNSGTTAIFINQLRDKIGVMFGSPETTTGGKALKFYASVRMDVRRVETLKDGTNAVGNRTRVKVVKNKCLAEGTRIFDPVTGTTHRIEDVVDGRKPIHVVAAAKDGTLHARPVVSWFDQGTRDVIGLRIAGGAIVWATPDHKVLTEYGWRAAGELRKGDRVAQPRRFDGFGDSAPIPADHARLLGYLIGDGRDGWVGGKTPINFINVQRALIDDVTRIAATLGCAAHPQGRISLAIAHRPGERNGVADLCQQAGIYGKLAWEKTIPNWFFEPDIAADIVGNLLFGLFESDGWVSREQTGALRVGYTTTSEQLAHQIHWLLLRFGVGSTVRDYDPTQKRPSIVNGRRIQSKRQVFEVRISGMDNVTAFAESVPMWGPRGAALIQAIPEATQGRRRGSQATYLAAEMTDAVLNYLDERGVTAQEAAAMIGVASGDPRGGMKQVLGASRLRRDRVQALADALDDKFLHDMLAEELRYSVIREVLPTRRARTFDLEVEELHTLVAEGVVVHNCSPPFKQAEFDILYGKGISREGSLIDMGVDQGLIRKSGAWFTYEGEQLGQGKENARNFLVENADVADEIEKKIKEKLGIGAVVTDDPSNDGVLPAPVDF
Nature of the experiment: Fluorescence Cell-Free Homogeneous Dose Retest to Identify Inhibitors of RecA-Intein Splicing Activity. [Related pubchem assays (depositor defined):AID2097, AID2223, AID489010, AID492950]. The experiment is classed as functional.

In experiment [2] the target is T3, Replicative DNA helicase DnaB (Mycobacterium tuberculosis, UniProt P9WMR3).
T3 sequence (P9WMR3 whole entry): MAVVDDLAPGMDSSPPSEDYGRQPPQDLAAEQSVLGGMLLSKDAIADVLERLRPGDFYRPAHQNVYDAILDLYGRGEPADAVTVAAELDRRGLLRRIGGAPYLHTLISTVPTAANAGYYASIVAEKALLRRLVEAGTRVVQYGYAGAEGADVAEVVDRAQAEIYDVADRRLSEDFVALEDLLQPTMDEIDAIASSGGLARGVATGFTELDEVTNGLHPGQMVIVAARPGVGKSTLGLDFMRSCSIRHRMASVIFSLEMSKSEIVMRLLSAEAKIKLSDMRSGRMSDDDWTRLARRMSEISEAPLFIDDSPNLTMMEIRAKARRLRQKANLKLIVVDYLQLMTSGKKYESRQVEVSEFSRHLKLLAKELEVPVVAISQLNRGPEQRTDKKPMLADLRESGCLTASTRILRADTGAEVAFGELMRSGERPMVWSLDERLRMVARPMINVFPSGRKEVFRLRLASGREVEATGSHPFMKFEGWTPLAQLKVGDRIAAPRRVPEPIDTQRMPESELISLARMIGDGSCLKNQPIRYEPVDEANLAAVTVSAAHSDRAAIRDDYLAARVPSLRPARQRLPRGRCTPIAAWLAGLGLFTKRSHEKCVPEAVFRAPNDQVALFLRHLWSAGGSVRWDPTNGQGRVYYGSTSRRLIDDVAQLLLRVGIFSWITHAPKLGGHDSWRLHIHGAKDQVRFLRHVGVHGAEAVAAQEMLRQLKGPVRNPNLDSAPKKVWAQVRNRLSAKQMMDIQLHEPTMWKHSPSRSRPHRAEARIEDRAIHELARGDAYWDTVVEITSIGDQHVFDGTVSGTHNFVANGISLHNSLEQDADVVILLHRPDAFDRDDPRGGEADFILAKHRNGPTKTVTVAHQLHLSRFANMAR
Nature of the experiment: DnaB intein splicing inhibitors, dose response, biochemical, cell-free fluorescence (AID 449749). Type of experiment: functional.

In experiment [3] the target is T1, Estrogen receptor beta.
The target in a further experiment is NADPH oxidase 1 (Homo sapiens, UniProt Q9Y5S8). The experiment is classed as functional, cell-based.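 Also: Cell-based assay with luminescence read-out, IC50 derived from inhibitor dose-response curves; intracellular ROS from endogenous NOX1 in intact HT29 colon cancer cells; potency of inhibitors that lower the ROS luminescence signal.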
Chain of NADPH oxidase 1 (Q9Y5S8 whole entry): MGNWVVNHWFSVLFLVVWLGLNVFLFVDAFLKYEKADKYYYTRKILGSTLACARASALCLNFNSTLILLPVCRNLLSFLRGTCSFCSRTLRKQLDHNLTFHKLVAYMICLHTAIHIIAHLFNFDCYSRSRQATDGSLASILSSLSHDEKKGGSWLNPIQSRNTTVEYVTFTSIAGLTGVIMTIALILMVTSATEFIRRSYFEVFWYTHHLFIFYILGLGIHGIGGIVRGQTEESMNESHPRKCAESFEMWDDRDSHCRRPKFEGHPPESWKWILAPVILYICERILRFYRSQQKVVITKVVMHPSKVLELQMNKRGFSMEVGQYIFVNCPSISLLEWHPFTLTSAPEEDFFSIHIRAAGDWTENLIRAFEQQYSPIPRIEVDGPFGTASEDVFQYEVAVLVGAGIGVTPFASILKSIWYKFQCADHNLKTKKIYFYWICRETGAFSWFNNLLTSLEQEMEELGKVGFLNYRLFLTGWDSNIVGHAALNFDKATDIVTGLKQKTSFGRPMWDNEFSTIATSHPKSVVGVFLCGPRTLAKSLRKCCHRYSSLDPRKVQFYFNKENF
Experiment [4] deals with T4, Mannose-6-phosphate isomerase (Homo sapiens, UniProt P34949).
T4 sequence (P34949 whole entry): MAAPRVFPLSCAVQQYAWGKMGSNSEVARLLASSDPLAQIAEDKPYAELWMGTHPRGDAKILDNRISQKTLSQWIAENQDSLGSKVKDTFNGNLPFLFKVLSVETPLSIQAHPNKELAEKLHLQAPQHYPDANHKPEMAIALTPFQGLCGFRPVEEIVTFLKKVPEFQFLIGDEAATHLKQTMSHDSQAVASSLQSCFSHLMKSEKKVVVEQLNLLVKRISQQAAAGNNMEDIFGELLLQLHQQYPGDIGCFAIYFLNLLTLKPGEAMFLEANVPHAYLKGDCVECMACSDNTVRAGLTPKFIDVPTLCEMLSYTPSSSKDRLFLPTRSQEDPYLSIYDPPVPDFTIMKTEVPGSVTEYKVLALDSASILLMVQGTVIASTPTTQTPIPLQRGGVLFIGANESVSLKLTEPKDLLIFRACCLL
Briefly: inhibitors of human PMI, primary screen, biochemical, fluorescence intensity, coupled assay (AID 1209).

Experiment [5] concerns the target T4, Mannose-6-phosphate isomerase. Briefly: human PMI inhibitors, high substrate, primary screen, biochemical, fluorescence intensity, high mannose 6-phosphate (AID 1220).
Experiment [6] has as its target Phosphoethanolamine/phosphocholine phosphatase (Homo sapiens, UniProt Q8TCT1). Nature of the experiment: SAR assay for compounds that inhibit PHOSPHO1. [Related pubchem assays (depositor defined):AID1545, AID1565, AID1574].
A further experiment concerns the target T5, Phosphomannomutase 2 (Homo sapiens, UniProt O15305).
T5 sequence (O15305 whole entry): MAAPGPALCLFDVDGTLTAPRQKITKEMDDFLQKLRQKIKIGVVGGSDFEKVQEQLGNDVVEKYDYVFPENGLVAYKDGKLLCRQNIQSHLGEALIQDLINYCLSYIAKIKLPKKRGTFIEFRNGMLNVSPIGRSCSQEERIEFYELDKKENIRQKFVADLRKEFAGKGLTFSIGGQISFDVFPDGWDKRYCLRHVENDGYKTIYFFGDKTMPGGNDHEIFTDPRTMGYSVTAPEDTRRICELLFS
Briefly: Counter screen SAR assay for PMM2 inhibitors via a fluorescence intensity assay. [Related pubchem assays (depositor defined):AID1545, AID1574].

The target in the next experiment is Procathepsin L (Homo sapiens, UniProt P07711).
Chain of Procathepsin L (P07711 whole entry): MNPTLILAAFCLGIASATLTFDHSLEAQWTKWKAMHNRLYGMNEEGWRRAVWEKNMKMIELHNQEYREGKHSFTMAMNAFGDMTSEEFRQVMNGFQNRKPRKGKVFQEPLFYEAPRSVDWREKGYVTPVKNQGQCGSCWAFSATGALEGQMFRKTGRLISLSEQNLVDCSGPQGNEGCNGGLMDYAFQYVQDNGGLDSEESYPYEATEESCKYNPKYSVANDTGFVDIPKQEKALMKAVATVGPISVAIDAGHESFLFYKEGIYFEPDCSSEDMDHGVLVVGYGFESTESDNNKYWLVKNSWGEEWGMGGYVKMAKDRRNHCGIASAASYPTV
The next experiment addresses Large T antigen (Simian virus 40, UniProt P03070). The experiment is classed as functional, Betapolyomavirus macacae.
The target of another experiment is T6, Insulin-degrading enzyme (Homo sapiens, UniProt P14735).
T6 sequence (P14735 whole entry): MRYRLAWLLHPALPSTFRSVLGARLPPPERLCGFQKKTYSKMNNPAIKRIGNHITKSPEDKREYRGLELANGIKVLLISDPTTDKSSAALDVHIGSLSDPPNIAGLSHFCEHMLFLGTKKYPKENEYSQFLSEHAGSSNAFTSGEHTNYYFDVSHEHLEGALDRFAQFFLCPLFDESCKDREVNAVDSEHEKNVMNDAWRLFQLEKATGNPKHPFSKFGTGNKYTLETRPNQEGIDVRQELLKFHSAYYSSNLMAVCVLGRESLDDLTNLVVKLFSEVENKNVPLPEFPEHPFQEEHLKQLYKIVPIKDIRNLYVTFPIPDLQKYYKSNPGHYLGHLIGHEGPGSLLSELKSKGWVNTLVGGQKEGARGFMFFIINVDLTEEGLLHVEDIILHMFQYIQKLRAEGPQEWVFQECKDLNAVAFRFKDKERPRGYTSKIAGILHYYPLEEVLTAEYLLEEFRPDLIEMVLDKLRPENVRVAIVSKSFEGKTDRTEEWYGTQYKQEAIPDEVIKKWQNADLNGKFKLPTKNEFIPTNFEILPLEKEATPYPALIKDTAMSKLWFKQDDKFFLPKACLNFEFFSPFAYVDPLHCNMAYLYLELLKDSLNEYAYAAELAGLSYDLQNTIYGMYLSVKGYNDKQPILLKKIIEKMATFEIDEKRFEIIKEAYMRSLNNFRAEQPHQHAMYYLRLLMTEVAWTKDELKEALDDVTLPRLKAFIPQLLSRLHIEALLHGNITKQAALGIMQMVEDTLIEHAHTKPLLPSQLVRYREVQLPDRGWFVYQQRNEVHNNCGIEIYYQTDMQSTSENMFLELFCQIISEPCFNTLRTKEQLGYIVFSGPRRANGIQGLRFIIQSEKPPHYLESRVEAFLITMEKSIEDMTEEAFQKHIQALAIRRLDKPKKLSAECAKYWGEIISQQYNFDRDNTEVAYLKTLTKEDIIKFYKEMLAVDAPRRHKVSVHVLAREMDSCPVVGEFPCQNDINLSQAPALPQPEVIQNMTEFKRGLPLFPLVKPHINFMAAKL
Nature of the experiment: Dose Response: Fluorescence polarization-based cell-based high throughput dose response assay for inhibitors of insulin-degrading enzyme (IDE). [Related pubchem assays: 434962 (Primary screen (IDE inhibitors in singlicate)), 449730 (Counterscreen (Cytotoxicity in triplicate)), 435028 (Confirmation (IDE inhibitors in triplicate)), 434984 (Summary …. Type of experiment: functional. In general terms: Polarisation of emitted light reports the rotation of a fluorescent probe.

Experiment [7] is described as follows: Counterscreen for IDE inhibitors: Luminescence-based cell-based high throughput dose response assay to identify compounds that are cytotoxic to HEK cells. [Related pubchem assays: 434962 (Primary screen (IDE inhibitors in singlicate)), 449730 (Counterscreen (Cytotoxicity in triplicate)), 435028 (Confirmation (IDE inhibitors in triplicate)) …. Type of experiment: functional. Conditions: HEK293. Background: Counterscreens check selectivity or assay interference.

A short description of experiment [8]: cytotoxicity toward NIH3T3 fibroblasts, dose response, counter-screen, cell-based, ATP luminescence, mouse fibroblasts (AID 2010).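 Also: cells exposed to compound for about 90 hours before reading.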 Type of experiment: functional.
Experiment [9] can be described thus: inhibitors of intracellular T. cruzi replication, confirmation, NIH3T3 host cells, beta-gal luminescence (AID 2044).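 Also: intracellular parasites grown in NIH/3T3 mouse fibroblasts as host cells; luminescent beta-galactosidase reporter signal from transgenic T. cruzi replicating inside host cells; inhibitors lower the luminescence signal.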 The experiment is classed as functional, cell-based.
The next experiment concerns the target T7, Aspartyl aminopeptidase (Plasmodium falciparum 3D7, UniProt Q8I2J3).
T7 sequence (Q8I2J3 whole entry): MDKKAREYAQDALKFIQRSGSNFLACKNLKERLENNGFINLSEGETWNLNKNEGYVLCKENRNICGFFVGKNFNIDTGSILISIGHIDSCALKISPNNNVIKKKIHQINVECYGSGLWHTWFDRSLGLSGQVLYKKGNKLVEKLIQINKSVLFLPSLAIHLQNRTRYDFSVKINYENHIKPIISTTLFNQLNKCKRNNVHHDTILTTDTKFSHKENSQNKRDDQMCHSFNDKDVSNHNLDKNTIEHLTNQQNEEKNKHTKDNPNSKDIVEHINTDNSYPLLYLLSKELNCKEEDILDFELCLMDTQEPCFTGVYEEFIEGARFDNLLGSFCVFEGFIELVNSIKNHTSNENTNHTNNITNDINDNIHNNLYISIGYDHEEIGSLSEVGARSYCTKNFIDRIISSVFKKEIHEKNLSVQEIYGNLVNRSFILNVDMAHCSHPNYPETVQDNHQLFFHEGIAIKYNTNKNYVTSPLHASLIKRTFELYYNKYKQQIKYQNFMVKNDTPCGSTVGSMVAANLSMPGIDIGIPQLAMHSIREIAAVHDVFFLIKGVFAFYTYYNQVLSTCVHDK

The target of experiment [10] is T4, Mannose-6-phosphate isomerase. Briefly: PMI enzyme inhibitors, confirmation, biochemical, fluorescence intensity (AID 1535).
For experiment [11], the target named is Eukaryotic translation initiation factor 4E (Mus musculus, UniProt P63073). Briefly: eIF4E–eIF4G protein interaction inhibitors, dose response, biochemical, TR-FRET (AID 855).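 Also: potency for disrupting eIF4E binding to eIF4GI seen as loss of FRET.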 Type of experiment: functional.
Chain of Eukaryotic translation initiation factor 4E (P63073 whole entry): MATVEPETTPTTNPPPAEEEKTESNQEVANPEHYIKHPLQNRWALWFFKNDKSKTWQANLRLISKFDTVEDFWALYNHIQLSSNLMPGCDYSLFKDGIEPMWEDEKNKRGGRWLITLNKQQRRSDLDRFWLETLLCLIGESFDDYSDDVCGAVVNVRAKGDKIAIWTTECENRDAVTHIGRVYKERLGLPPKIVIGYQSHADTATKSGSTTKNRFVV
The target in experiment [12] is T8, Alkaline phosphatase, tissue-nonspecific isozyme (Homo sapiens, UniProt P05186).
T8 sequence (P05186 whole entry): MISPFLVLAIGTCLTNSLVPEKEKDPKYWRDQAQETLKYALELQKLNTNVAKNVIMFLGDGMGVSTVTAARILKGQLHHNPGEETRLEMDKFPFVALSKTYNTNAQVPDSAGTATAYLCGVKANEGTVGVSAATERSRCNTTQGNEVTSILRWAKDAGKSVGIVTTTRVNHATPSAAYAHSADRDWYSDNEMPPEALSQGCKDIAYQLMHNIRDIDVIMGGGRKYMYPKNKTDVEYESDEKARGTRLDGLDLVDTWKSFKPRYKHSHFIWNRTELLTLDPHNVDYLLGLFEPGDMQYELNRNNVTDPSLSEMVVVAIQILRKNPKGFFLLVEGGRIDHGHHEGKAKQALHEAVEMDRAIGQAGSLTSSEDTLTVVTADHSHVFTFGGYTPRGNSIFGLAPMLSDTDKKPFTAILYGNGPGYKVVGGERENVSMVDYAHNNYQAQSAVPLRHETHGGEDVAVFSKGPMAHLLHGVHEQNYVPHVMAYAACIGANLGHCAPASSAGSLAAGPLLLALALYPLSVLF
Nature of the experiment: human TNAP enzyme inhibitors, SAR follow-up, biochemical, luminescent, dose response (AID 1056).

Activity calls are given as the source filed them.

The record followed here is ChEMBL document CHEMBL1201862, “PubChem BioAssay data set” (2004).

By IC50 is commonly meant the midpoint of a concentration-inhibition curve. Broadly, the EC50 is the concentration needed to bring the measured effect to its halfway point. Usually AC50 stands for the concentration giving half of the maximal activity seen.

T1 sequence (Q92731 whole entry): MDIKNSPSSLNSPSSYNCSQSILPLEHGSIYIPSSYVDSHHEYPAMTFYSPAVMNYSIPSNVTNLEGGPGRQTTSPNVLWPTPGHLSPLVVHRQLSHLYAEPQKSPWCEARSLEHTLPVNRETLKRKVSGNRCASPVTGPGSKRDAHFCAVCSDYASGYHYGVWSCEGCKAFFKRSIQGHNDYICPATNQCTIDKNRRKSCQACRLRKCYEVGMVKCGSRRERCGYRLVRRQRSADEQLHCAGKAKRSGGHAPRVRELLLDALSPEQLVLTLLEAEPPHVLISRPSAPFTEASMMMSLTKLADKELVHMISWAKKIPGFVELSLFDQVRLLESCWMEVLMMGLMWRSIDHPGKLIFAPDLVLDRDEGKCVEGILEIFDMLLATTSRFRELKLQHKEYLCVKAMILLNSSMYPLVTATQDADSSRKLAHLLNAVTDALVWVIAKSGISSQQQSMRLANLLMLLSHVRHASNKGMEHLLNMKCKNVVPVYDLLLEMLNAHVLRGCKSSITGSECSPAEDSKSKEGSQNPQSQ
Chain of Phosphoethanolamine/phosphocholine phosphatase (Q8TCT1 whole entry): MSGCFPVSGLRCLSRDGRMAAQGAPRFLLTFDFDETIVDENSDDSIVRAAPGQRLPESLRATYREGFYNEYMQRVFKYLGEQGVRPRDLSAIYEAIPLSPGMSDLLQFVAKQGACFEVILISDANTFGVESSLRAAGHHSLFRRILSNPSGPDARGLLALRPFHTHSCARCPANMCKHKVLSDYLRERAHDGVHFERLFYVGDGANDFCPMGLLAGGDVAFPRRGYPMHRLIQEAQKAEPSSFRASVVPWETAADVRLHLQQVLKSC
Chain of Large T antigen (P03070 whole entry): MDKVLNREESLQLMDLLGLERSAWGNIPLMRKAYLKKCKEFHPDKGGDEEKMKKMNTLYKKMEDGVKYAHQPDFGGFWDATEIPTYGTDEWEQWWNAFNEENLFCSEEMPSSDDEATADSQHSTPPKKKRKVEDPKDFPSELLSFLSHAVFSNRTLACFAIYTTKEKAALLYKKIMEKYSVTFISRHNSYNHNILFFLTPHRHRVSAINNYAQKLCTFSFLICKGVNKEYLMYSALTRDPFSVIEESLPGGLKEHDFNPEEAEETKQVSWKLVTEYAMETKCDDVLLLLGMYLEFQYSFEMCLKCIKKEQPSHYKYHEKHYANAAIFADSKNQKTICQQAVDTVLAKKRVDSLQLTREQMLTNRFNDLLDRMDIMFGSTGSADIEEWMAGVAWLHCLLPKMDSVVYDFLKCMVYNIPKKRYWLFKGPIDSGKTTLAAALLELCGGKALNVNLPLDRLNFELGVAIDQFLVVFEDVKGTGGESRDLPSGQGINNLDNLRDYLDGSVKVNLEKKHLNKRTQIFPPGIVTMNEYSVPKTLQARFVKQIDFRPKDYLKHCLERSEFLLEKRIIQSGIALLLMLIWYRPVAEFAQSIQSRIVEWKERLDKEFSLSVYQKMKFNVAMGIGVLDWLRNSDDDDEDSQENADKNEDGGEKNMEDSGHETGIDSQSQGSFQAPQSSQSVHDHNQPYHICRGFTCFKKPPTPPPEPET

For the compound `CC1(N2CCOCC2)CC2(O)C(=[N+]1[O-])CCc1nonc12` (centres undefined), the IC50 was 0.256 µM (not active) on Estrogen receptor beta [1] and 12 µM (active) at Estrogen receptor beta [3]. In addition, on Protein RecA, the EC50 is 11.9 µM (active). Also, in [2], the AC50 is > 380 µM (inactive).
For the compound `c1ccc(-c2nc(-c3ccccc3)c(-c3ccccc3)o2)cc1`, the IC50 at NADPH oxidase 1 was > 17 µM (not active).
As for `Cc1ccc(-n2sc3ccccc3c2=O)cc1S(=O)(=O)N1CCCCC1`, the IC50 in [4] is > 50 µM (not active); in experiment [5], > 50 µM (not active); in experiment [6] it was 1.84 µM (inactive); on Phosphomannomutase 2 it was 14.6 µM (active); against Procathepsin L, > 59.6 µM (not active); at Large T antigen, 26.1 µM (active). The IC50 on Insulin-degrading enzyme was 4.05 µM (active); in experiment [7], 10.5 µM (not active); at Aspartyl aminopeptidase, 4.28 µM (active); in [10], 3.06 µM (active); in experiment [11], 1.93 µM (active); in experiment [12] it was > 100 µM (inactive). Also, the results for the EC50 in [8] and in experiment [9] were > 60 µM (not active) and 0.89 µM (active), respectively.
